Patent US20170240556A1, “BIFLUORODIOXALANE-AMINO-BENZIMIDAZOLE KINASE INHIBITORS FOR THE TREATMENT OF CANCER, AUTOIMMUNEINFLAMMATION AND CNS DISORDERS” (4SC DISCOVERY GMBH, priority 2012, published 2017)

What was measured:
[1] = target: Casein kinase 1 delta (CSKN1D) (Homo sapiens, UniProt P48730); test: Casein kinase assay, CK1 delta; assay type: biochemical; details: recombinant CSKN1D 5 nM, ATP 10 μM
[2] = target: Casein kinase 1 epsilon (CSKN1E) (Homo sapiens, UniProt P49674); test: Casein kinase assay, CK1 epsilon; assay type: biochemical; details: recombinant CSKN1E 30 nM, ATP 10 μM
Casein kinase 1 epsilon (CSKN1E), sequence (P49674 whole entry): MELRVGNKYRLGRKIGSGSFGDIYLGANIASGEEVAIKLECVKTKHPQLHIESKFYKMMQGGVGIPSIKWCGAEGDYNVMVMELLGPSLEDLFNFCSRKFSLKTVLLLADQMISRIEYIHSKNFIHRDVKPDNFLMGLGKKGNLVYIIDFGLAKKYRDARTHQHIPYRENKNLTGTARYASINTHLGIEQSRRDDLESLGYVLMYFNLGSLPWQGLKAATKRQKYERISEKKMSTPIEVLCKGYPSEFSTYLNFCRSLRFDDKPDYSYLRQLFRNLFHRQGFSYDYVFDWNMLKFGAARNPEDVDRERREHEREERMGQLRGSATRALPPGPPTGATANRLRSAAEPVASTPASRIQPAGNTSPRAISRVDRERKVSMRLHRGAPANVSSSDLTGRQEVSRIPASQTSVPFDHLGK

[3] = tested on: Wnt/β-catenin signaling pathway; test: Wnt reporter assay (CellSensor LEF/TCF-bla FreeStyle 293F cells); assay type: cell-based; details: Homo sapiens; LEF/TCF-bla 293F cells, LiCl and mWnt3a stimulation
Protocol: The Wnt reporter assay was performed in stably transfected human HEK293 cells. Wnt signaling was induced by administration of Wnt3a protein and read out by β-Lactamase mediated cleavage of CCF4-AM and subsequent fluorescent detection.
CellSensor LEF/TCF-bla FreeStyle 293F cells (invitrogen #K1677) contain a beta-lactamase reporter gene under control of the β-catenin/LEF/TCF binding elements stably integrated into FreeStyle 293F cells. This cell line can be used to detect antagonists of the Wnt/β-catenin signaling pathway when stimulated by mouse Wnt3a or LiCl. The detection of beta-lactamase is possible with LiveBLAzer FRET—B/G Loading Kit (invitrogen #K1095) with CCF4-AM as subtrate.
Culture Medium: DMEM Medium +10% dialyzed FBS (PAN 2102-P290310), +1% NEAA (PAA M11-003), +1% P/S (Penicillin/Streptomycin, PAA P11-010) +25 mM HEPES (PAA S11-001), +5 μg/ml Blasticidin (PAA P05-017).
Cells (CellSensor LEF/TCF-bla FreeStyle 293F, invitrogen K1677) were split with Culture Medium to reach a confluence at the beginning of the assay of 80-90%.
At start of the assay, cells were harvested from culture and resuspend in assay medium at density of 0,66*10̂6 cells/ml. Subsequently, 60μ1 cell suspension were pipetted in each well of a Poly-D-Lysine 96 well Plate (BD #354640, vertical rows are marked 1 through 12, horizontal lanes are marked A through H),
Plates were subsequently incubated at 37° C. for at least 2 h.
To stimulate with Wnt3a, overnight prestimulation of Wnt signalling pathway with LiCl is necessary. Subsequently, an 8M aqueous LiCl solution was diluted 1:200 in assay medium, and 30 μl of said diluted LiCl solution was plated into the appropriate wells (see below pipetting scheme). Plates were then incubated at 37° C. over night.
Subsequently, compounds and controls were prepared as follows: mWnt3a (R&D 1324-WN, dissolved in PBS+0.1% BSA to 40 μg/ml) was diluted 1:100 in assay medium (=400 ng/ml). Compounds (Cpd) were diluted to a concentration of 10 mM in DMSO to prepare dilution series in assay medium (final concentrations 30 μM, 10 μM, 3 μM, 1 μM, 0.3 μM, 0.1 μM, 0.03 μM and 0.01 μM), which were pipetted into the appropriate wells (see below pipetting scheme). For each dilution of each compound, 3 replicates were tested. Final DMSO concentration was 0.3%.
LiCl and mWnt3a stimulated cells were used as High control (HC), unstimulated cells were used as low control, a blank was prepared from cell free medium plus mWnt3a, and a functional control was prepared with a known Wnt inhibitor (e.g. PKF118-310), final concentrations were as above.
Subsequently, the well was incubated for 5 h at 37° C.
At t=23 hours, FRET reagent mix (Loading Kit with CCF4-AM, Life Technologies #K1096) was prepared; per plate: 138 μl Solution B, 13.8 μl FRET-reagent, and 2300 μl Solution C. 24 μl FRET reagent mix were plated to each well, subsequently plates were incubated for at least 2 h in the dark (it is possible to incubate over night). Subsequently, plates were measured in the BMG FluorStar® plate reader at an emission waveltengths of 460 and 520 nm and with an excitation wavelength of 405 nm.
To determine potential cytotoxicity of the compounds, plates were centrifuge and the supernatant was discarded by dumping the plates. Subsequently, 100 μl Opti-MEM and 50 μl ViaLight (Lonza #LT07-321) Lysis Buffer were added to each well, followed by incubation for 10 min at room temperature (25° C.). Subsequently, 100 μl ViaLight reagent were added to each well, followed by incubation for 2 min at room temperature (25° C.) in the dark. Optionally, 200 μl of the obtained suspension were transferred to a white 96 well plate. The luminescence was measured with a Tecan Ultra plate reader.

[4] = tested on: Hedgehog signaling pathway; test: Hedgehog reporter assay (Gli Reporter - NIH3T3 Cell Line); assay type: cell-based; details: Mus musculus; Gli reporter NIH3T3 cells, murine SHH stimulation, 24 h; read-out: HH Assay
Protocol: In order to investigate the potency of test compounds to inhibit the Hedgehog signaling pathway, a Gli-Reporter assay was performed.
The “Gli Reporter—NIH3T3 Cell Line” contains the firefly luciferase gene under the control of Gli responsive elements stably integrated into murine NIH3T3 cells (cells purchased from Amsbio). The luciferase expression correlates with activation of the hedgehog signaling pathway. This cell line is validated for its response to stimulation with murine Sonic Hedgehog and to treatment with inhibitors of the hedgehog signaling pathway. A multiplexed viability assay was used to discriminate inhibition on the pathway activity from cell toxicity.
Growth Medium: DMEM, 10% Calf Serum, 1% Penicillin/Streptomycin 500 μg/ml Geneticin (G418 Stock 50 mg/ml).
25.000 cells per well were seeded into a white 96 well plate in 100 μl growth medium and incubated over night at 37° C. and 5% CO2. After removing the supernatant the test compounds and controls (known GLI inhibitor, e.g. GANT-61) were added in different concentrations in a final volume of 45 μl and incubated for 1 h at 37° C. and 5% CO2. For the stimulation of the Hedgehog pathway 5 μl of 10 μg/ml concentrated murine sonic hedgehog (SHH) was added to the cells. A final concentration of 1 μg/ml mSHH and 0.1% DMSO was reached per well. After incubation for 24 h at 37° C. the cells were investigated for viability and reporter activity.
Viability: For the determination of the viability of the treated cells the CellTiter-Fluor Kit from Promega was used. Essentially, only proteases of viable cells are able to cleave the cell-permeant substrate Gly-Phe-AFCoumarin (GF-AFC). By this cleavage the fluorescent AFC is set free and can be detected in a fluorescence reader. For this assay 10 μl of GF-AFC substrate (CellTiter-Fluor, Promega #G6082) was diluted in 2 ml assay buffer from the CellTiter-Fluor Kit and 10 μl of this dilution was added per well to the cells and incubated for 30 min at 37° C. The fluorescence was measured with excitation at 380-400 nm and emission at 505 nm.
Reporter activity: The firefly luciferase reporter activity was detected with the ONE-Glo™ Luciferase Assay System from Promega. For this assay 50 μl ONE-Glo luciferase reagent (Promega #E6120, contains cell lysis buffer and luciferin) was added to each well and incubated at room temperature for 5 min. Luminescence was detected in a plate reader and served as a degree for reporter activity.

Casein kinase 1 delta (CSKN1D), sequence (P48730 whole entry): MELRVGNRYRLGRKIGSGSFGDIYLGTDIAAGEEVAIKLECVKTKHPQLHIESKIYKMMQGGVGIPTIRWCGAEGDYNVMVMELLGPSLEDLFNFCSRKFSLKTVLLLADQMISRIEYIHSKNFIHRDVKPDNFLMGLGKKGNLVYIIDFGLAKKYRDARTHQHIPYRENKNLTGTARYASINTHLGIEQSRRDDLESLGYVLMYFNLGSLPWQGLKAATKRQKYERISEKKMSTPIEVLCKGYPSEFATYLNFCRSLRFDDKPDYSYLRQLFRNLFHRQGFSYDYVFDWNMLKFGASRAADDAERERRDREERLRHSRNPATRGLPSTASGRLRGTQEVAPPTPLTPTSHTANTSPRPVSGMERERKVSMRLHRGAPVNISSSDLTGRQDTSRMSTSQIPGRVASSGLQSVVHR

| Compound | IC50 [1] | IC50 [2] | IC50 [3] | IC50 [4] |
| --- | --- | --- | --- | --- |
| COc1cc(OC)cc(C(=O)Nc2nc3cc4c(cc3[nH]2)OC(F)(F)O4)c1 [Compound 1B, N-(2,2-difluoro-5H-[1,3]dioxolo[4′,5′:4,5]benzo[1,2-d]imidazol-6-yl)-3,5-dimethoxybenzamide] | < 200 nM | < 200 nM | < 5 µM | – |
| O=C(Nc1nc2cc3c(cc2[nH]1)OC(F)(F)O3)c1cccc(-c2nccs2)c1 [Compound 2B, N-(2,2-difluoro-5H-[1,3]dioxolo[4′,5′:4,5]benzo[1,2-d]imidazol-6-yl)-3-(thiazol-2-yl)benzamide] | < 200 nM | – | < 5 µM | – |
| COc1cc(C(=O)Nc2nc3cc4c(cc3[nH]2)OC(F)(F)O4)ccc1N [Compound 9B, 4-amino-N-(2,2-difluoro-5H-[1,3]dioxolo[4′,5′:4,5]benzo[1,2-d]imidazol-6-yl)-3-methoxybenzamide] | < 200 nM | – | < 5 µM | ≤ 500 nM |
| Cc1nc(-c2cccc(C(=O)Nc3nc4cc5c(cc4[nH]3)OC(F)(F)O5)c2)no1 [Compound 137, N-(2,2-difluoro-5H-[1,3]dioxolo[4′,5′:4,5]benzo[1,2-d]imidazol-6-yl)-3-(5-methyl-1,2,4-oxadiazol-3-yl)benzamide] | < 200 nM | < 200 nM | < 5 µM | 500 to 1000 nM |
| O=C(Nc1nc2cc3c(cc2[nH]1)OC(F)(F)O3)c1cccc(-c2ncc[nH]2)c1 [Compound 140, N-(2,2-difluoro-5H-[1,3]dioxolo[4′,5′:4,5]benzo[1,2-d]imidazol-6-yl)-3-(1H-imidazol-2-yl)benzamide] | < 200 nM | < 200 nM | < 5 µM | 500 to 1000 nM |

Second part, the compound after the results:

| IC50 [1] | IC50 [2] | IC50 [3] | IC50 [4] | Compound |
| --- | --- | --- | --- | --- |
| < 200 nM | < 200 nM | < 5 µM | – | Cc1nnnn1-c1cccc(C(=O)Nc2nc3cc4c(cc3[nH]2)OC(F)(F)O4)c1 [Compound 148, N-(2,2-difluoro-5H-[1,3]dioxolo[4′,5′:4,5]benzo[1,2-d]imidazol-6-yl)-3-(5-methyl-1H-tetrazol-1-yl)benzamide] |
| < 200 nM | < 200 nM | 5 to 20 µM | 1000 to 15000 nM | O=C(Nc1nc2cc3c(cc2[nH]1)OC(F)(F)O3)c1cccc(-n2cnnn2)c1 [Compound 149, N-(2,2-difluoro-5H-[1,3]dioxolo[4′,5′:4,5]benzo[1,2-d]imidazol-6-yl)-3-(1H-tetrazol-1-yl)benzamide] |
